Results taken from patent US12655116B2, “Substituted isophthalic acid diamides” (Bayer Aktiengesellschaft, priority 2020, dated 2026).

How the values were obtained:
ABUTH [1] = test: Pre-emergence herbicidal action against ABUTH; type: in vivo, Abutilon theophrasti
How it was run: (§1)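 Herbicidal effect was assessed 3 weeks after treatment by visual comparison with untreated controls, 100% denoting dead plants. Aqueous WP or EC preparations had been applied at 600 to 800 l/ha with 0.2% wetting agent to the soil covering freshly sown seeds.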

ALOMY [2] = test: Pre-emergence herbicidal action against ALOMY; type: in vivo, Alopecurus myosuroides; conditions: 80 g/ha, pre-emergence, scored visually after 3 weeks vs untreated controls (100% = plants have died, 0% = like control plants)
How it was run: as §1

AMARE = test: Pre-emergence herbicidal action against AMARE; type: in vivo, Amaranthus retroflexus
How it was run: as §1

AVEFA [3] = test: Pre-emergence herbicidal action against AVEFA; type: in vivo, Avena fatua; conditions: 80 g/ha, pre-emergence
How it was run: as §1

ECHCG [4] = test: Pre-emergence herbicidal action against ECHCG; type: in vivo, Echinochloa crus-galli; conditions: 80 g/ha
How it was run: as §1

HORMU [5] = test: Pre-emergence herbicidal action against HORMU; type: in vivo, Hordeum murinum; conditions: 80 g/ha, pre-emergence
How it was run: as §1

LOLRI = test: Pre-emergence herbicidal action against LOLRI; type: in vivo, Lolium rigidum; conditions: 80 g/ha
How it was run: as §1

MATIN [6] = test: Pre-emergence herbicidal action against MATIN; type: in vivo, Matricaria inodora
How it was run: as §1

PHBPU [7] = test: Pre-emergence herbicidal action against PHBPU; type: in vivo, Pharbitis purpurea; conditions: dosage 80 g/ha
How it was run: as §1

POLCO [8] = test: Pre-emergence herbicidal action against POLCO; type: in vivo, Polygonum convolvulus
How it was run: as §1

SETVI [9] = test: Pre-emergence herbicidal action against SETVI; type: in vivo, Setaria viridis
How it was run: as §1

STEME [10] = test: Pre-emergence herbicidal action against STEME; type: in vivo, Stellaria media
How it was run: as §1

VERPE [11] = test: Pre-emergence herbicidal action against VERPE; type: in vivo, Veronica persica; conditions: dosage 80 g/ha
How it was run: as §1

VIOTR [12] = test: Pre-emergence herbicidal action against VIOTR; type: in vivo, Viola tricolor; conditions: dosage 80 g/ha
How it was run: as §1

DIGSA [13] = test: Pre-emergence herbicidal action against DIGSA; type: in vivo, Digitaria sanguinalis
How it was run: as §1

ABUTH [14] = test: Post-emergence herbicidal action against ABUTH; type: in vivo, Abutilon theophrasti; conditions: visual assessment about 3 weeks after treatment vs untreated controls
How it was run: (§2)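 Post-emergence greenhouse test; one-leaf stage, 2–3 wk post-sowing, sandy loam. Foliar spray of WP/EC in water, 600–800 l/ha, +0.2% wetting agent. Visual % action at ~3 wk vs untreated (100% = plants dead).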

ALOMY [15] = test: Post-emergence herbicidal action against ALOMY; type: in vivo, Alopecurus myosuroides; conditions: dosage 20 g/ha, visual assessment about 3 weeks after treatment vs untreated controls
How it was run: as §2

AVEFA [16] = test: Post-emergence herbicidal action against AVEFA; type: in vivo, Avena fatua; conditions: 20 g/ha, visual assessment about 3 weeks after treatment, 100% = plants have died, 0% = like control plants
How it was run: as §2

ECHCG [17] = test: Post-emergence herbicidal action against ECHCG; type: in vivo, Echinochloa crus-galli; conditions: dosage 20 g/ha
How it was run: as §2

HORMU [18] = test: Post-emergence herbicidal action against HORMU; type: in vivo, Hordeum murinum; conditions: dosage 20 g/ha
How it was run: as §2

MATIN [19] = test: Post-emergence herbicidal action against MATIN; type: in vivo, Matricaria inodora
How it was run: as §2

PHBPU [20] = test: Post-emergence herbicidal action against PHBPU; type: in vivo, Pharbitis purpurea
How it was run: as §2

SETVI [21] = test: Post-emergence herbicidal action against SETVI; type: in vivo, Setaria viridis; conditions: dosage 20 g/ha
How it was run: as §2

STEME [22] = test: Post-emergence herbicidal action against STEME; type: in vivo, Stellaria media
How it was run: as §2

VERPE [23] = test: Post-emergence herbicidal action against VERPE; type: in vivo, Veronica persica
How it was run: as §2

VIOTR [24] = test: Post-emergence herbicidal action against VIOTR; type: in vivo, Viola tricolor
How it was run: as §2

DIGSA [25] = test: Post-emergence herbicidal action against DIGSA; type: in vivo, Digitaria sanguinalis
How it was run: as §2

POLCO [26] = test: Post-emergence herbicidal action against POLCO; type: in vivo, Polygonum convolvulus; conditions: Fallopia convolvulus, 504 h
Description: Seeds of monocotyledonous and dicotyledonous weed and crop plants are laid out in sandy loam soil in wood-fiber pots, covered with soil and cultivated in a greenhouse under good growth conditions. 2 to 3 weeks after sowing, the test plants are treated at the one-leaf stage. The compounds of the invention, formulated in the form of wettable powders (WP) or as emulsion concentrates (EC), are then sprayed onto the green parts of the plants in the form of an aqueous suspension or emulsion at a water application rate equivalent to 600 to 800 l/ha, with addition of 0.2% wetting agent. After the test plants have been left to stand in the greenhouse under optimal growth conditions for about 3 weeks, the action of the preparations is assessed visually in comparison to untreated controls (herbicidal action in percent (%): 100% activity=the plants have died, 0% activity=like control plants). […] The tables below illustrate, in an illustrative manner, the post-emergence herbicidal action of the compounds of the invention, the herbicidal activity being stated in percent.

[27] = 80 g/ha, scored visually after 3 weeks vs untreated controls (100% = plants have died, 0% = like control plants)
[28] = Tripleurospermum inodorum, 504 h, dosage 20 g/ha

## CCn1nnnc1NC(=O)c1ccc(C(F)(F)F)c(C(=O)NC)c1C [Example 2-25]
ABUTH [1]; [27]
  Pre-emergence action against ABUTH (herbicidal activity): 100%
ABUTH [1]; dosage 20 g/ha, scored visually after 3 weeks vs untreated controls, 100% = plants have died, 0% = like control plants
  Pre-emergence action against ABUTH (herbicidal activity in percent): 100%
ALOMY [2]
  Pre-emergence action against ALOMY (herbicidal activity): 90%
AMARE; 20 g/ha, scored visually after 3 weeks vs untreated controls, 100% = plants have died, 0% = like control plants
  Pre-emergence action against AMARE in %: 100%
AMARE; [27]
  Pre-emergence action against AMARE in %: 100%
AVEFA [3]
  Pre-emergence action against AVEFA in %: 100%
ECHCG [4]
  Pre-emergence action against ECHCG in %: 100%
HORMU [5]
  Pre-emergence action against HORMU in %: 90%
LOLRI
  Pre-emergence action against LOLRI in %: 80%
MATIN [6]; dosage 20 g/ha
  Pre-emergence action against MATIN in %: 100%
MATIN [6]; dosage 80 g/ha
  Pre-emergence action against MATIN in %: 100%
PHBPU [7]
  Pre-emergence action against PHBPU in %: 80%
POLCO [8]; dosage 20 g/ha
  Pre-emergence action against POLCO in %: 100%
POLCO [8]; dosage 80 g/ha
  Pre-emergence action against POLCO in %: 100%
SETVI [9]; dosage 20 g/ha
  Pre-emergence action against SETVI in %: 100%
SETVI [9]; dosage 80 g/ha
  Pre-emergence action against SETVI in %: 100%
STEME [10]; dosage 20 g/ha
  Pre-emergence action against STEME in %: 90%
STEME [10]; dosage 80 g/ha
  Pre-emergence action against STEME in %: 100%
VERPE [11]
  Pre-emergence action against VERPE in %: 100%
VIOTR [12]
  Pre-emergence action against VIOTR in %: 100%
DIGSA [13]; dosage 20 g/ha
  Pre-emergence action against DIGSA in %: 100%
DIGSA [13]; dosage 80 g/ha
  Pre-emergence action against DIGSA in %: 100%
ABUTH [14]; dosage 5 g/ha
  Post-emergence action against ABUTH in %: 100%
ABUTH [14]; dosage 20 g/ha
  Post-emergence action against ABUTH in %: 100%
ALOMY [15]
  Post-emergence action against ALOMY in %: 90%
AVEFA [16]
  Post-emergence action at 20 g/ha against AVEFA in %: 100%
ECHCG [17]
  Post-emergence action against ECHCG in %: 80%
HORMU [18]
  Post-emergence action against HORMU in %: 80%
MATIN [19]; dosage 5 g/ha
  Post-emergence action against MATIN in %: 90%
MATIN [19]; dosage 20 g/ha
  Post-emergence action against MATIN in %: 100%
PHBPU [20]; dosage 5 g/ha
  Post-emergence action against PHBPU in %: 80%
PHBPU [20]; dosage 20 g/ha
  Post-emergence action against PHBPU in %: 90%
SETVI [21]
  Post-emergence action against SETVI in %: 80%
STEME [22]; 20 g/ha
  Post-emergence action against STEME in %: 100%
STEME [22]; dosage 5 g/ha
  Post-emergence action against STEME in %: 90%
VERPE [23]; 20 g/ha
  Post-emergence action against VERPE in %: 90%
VIOTR [24]; 5 g/ha
  Post-emergence action against VIOTR in %: 80%
VIOTR [24]; 20 g/ha
  Post-emergence action against VIOTR in %: 90%
DIGSA [25]; 5 g/ha
  Post-emergence action against DIGSA in %: 80%
DIGSA [25]; 20 g/ha
  Post-emergence action against DIGSA: 90%

## CNC(=O)c1c(C(F)F)ccc(C(=O)Nc2nnnn2C)c1OC [Example 1-72]
ABUTH [1]; Abutilon theophrasti, 504 h, 80 g/ha, scored visually after 3 weeks vs untreated controls (100% = plants have died, 0% = like control plants)
  pest or weed control at 80 g/ha: 100%
ABUTH [1]; Abutilon theophrasti, 504 h, dosage 20 g/ha, scored visually after 3 weeks vs untreated controls, 100% = plants have died, 0% = like control plants, read-out: Pre-emergence action against ABUTH (herbicidal activity in percent)
  pest or weed control at 20 g/ha: 100%
AMARE; Amaranthus retroflexus, 504 h, 20 g/ha, scored visually after 3 weeks vs untreated controls, 100% = plants have died, 0% = like control plants
  pest or weed control at 20 g/ha: 100%
AMARE; Amaranthus retroflexus, 504 h, 80 g/ha, scored visually after 3 weeks vs untreated controls, 100% = plants have died, 0% = like control plants
  pest or weed control at 80 g/ha: 100%
ECHCG [4]; Echinochloa crus-galli, 504 h
  pest or weed control at 80 g/ha: 80%
MATIN [6]; [28]
  pest or weed control at 20 g/ha: 80%
MATIN [6]; Tripleurospermum inodorum, 504 h, dosage 80 g/ha
  pest or weed control at 80 g/ha: 100%
SETVI [9]; Setaria viridis, 504 h, dosage 80 g/ha
  pest or weed control at 80 g/ha: 100%
VIOTR [12]; Viola tricolor, 504 h
  pest or weed control at 80 g/ha: 100%
DIGSA [13]; Digitaria sanguinalis, 504 h, dosage 20 g/ha
  pest or weed control at 20 g/ha: 90%
DIGSA [13]; Digitaria sanguinalis, 504 h, dosage 80 g/ha
  pest or weed control at 80 g/ha: 100%
ABUTH [14]; Abutilon theophrasti, 504 h, dosage 5 g/ha
  pest or weed control at 5 g/ha: 80%
ABUTH [14]; Abutilon theophrasti, 504 h, dosage 20 g/ha
  pest or weed control at 20 g/ha: 90%
ECHCG [17]; Echinochloa crus-galli, 504 h
  pest or weed control at 20 g/ha: 80%
MATIN [19]; [28]
  pest or weed control at 20 g/ha: 80%
PHBPU [20]; Ipomoea purpurea, 504 h, dosage 20 g/ha
  pest or weed control at 20 g/ha: 80%
POLCO [26]; dosage 5 g/ha
  pest or weed control at 5 g/ha: 100%
POLCO [26]; dosage 20 g/ha
  pest or weed control at 20 g/ha: 100%
SETVI [21]; Setaria viridis, 504 h
  pest or weed control at 20 g/ha: 80%
VERPE [23]; Veronica persica, 504 h, 5 g/ha
  pest or weed control at 5 g/ha: 80%
VERPE [23]; Veronica persica, 504 h, 20 g/ha
  pest or weed control at 20 g/ha: 90%
VIOTR [24]; Viola tricolor, 504 h, 20 g/ha
  pest or weed control at 20 g/ha: 90%
